Measured values from PubChem BioAssay (NCI).
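In this assay, cells in 96-well plates receive the compound at five concentrations for 48 hours. Endpoints are linearly interpolated between the surrounding concentrations. GI50: concentration for 50% inhibition of growth. TGI: total growth inhibition.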

These compounds were tested on OVCAR-4 ovarian (assay: DTP human tumour cell line panel, 48 h).
CC1(C)N=C(/C(Cl)=[N+](/[O-])C(=O)c2ccc(F)cc2)C(C)(C)N1O was tested, and the TGI was 32.2 µM.
In the case of COC(=O)[C@H](Cc1c[nH]c2ccccc12)NP(=O)(O)OCC1C=CC(n2cc(C)c(=O)[nH]c2=O)O1 (stereo not given in full), the TGI is reported as > 100 µM.
In the case of C[n+]1c2ccccc2c(/C=N\NS(=O)(=O)c2ccc(O)c(C(=O)O)c2)c2ccccc21, the TGI is reported as > 100 µM.
For O=C(Nc1ccc(C2=NCCN2)cc1)c1cncc(C(=O)Nc2ccc(C3=NCCN3)cc2)c1, the TGI was > 100 µM.
Compound Clc1ccc(/C=C/c2nc3ccccc3s2)cc1Cl has a TGI of 37.3 µM.
In the case of Cc1ccc(SCC(CSCCO)OCn2cnc3c2NC(N)=NC32OCCO2)cc1 (stereo not given), the TGI is reported as > 100 µM.
Compound CC(=O)Nc1ccc(-c2nnc(SCC(=O)Nc3ccc([N+](=O)[O-])cc3)o2)cc1 has a TGI of 26.3 µM.
For N.N.N.N.O=[N+]([O-])[O-].[Co+3].[N-]=[N+]=[N-].[N-]=[N+]=[N-], the TGI was > 100 µM.
In the case of COC(=O)C1CCC(=O)N1C(c1ccccc1)c1ccc(OC)c(OC)c1 (stereo not given), the TGI is reported as > 100 µM.
For NC(=O)C(c1ccccc1)N1OC2C(=O)N(c3ccccc3)C(=O)C2C1c1c2ccccc2c(Cl)c2ccccc12 (stereo not given), the TGI was > 100 µM.
For CC[C@@]1(C[C@H]2C[C@@]3(C(=O)OC)c4[nH]c5ccccc5c4CCN3C2=O)COC2(CCCCC2)O1, the TGI was > 100 µM.
With COc1ccc2c(=O)c(O)c(-c3ccc(OC)c(OC)c3)oc2c1 the TGI was 0.599 µM.
With CC(C)CCCCCCCCCCCCC(=O)NCC(=O)NC1C(C)OC(Nc2ncnc3c2ncn3C)C(O)C1O (stereo not given) the TGI was > 100 µM.
CCC12C=CCN3CCC4(C(=C(C(=O)OC)[C@@H]1O)Nc1ccccc14)C32 (stereo not given in full) gave a TGI of 4.17 µM.
With Oc1cc2c3c(c1)c1cc4c(cc1c[n+]3CC2)OCO4 the TGI was > 48.6 µM.
In the case of Cc1cn(C2CC(N(O)C(N)=O)C(CO)O2)c(=O)[nH]c1=O (stereo not given), the TGI is reported as > 100 µM.
Work on COc1nc(N)c(C(=O)CCl)c(=O)n1C yielded a TGI of 33.2 µM.
For O=C1CCC23CC(C=CC=C12)n1c(=O)n(-c2ccccc2)c(=O)n13 (stereo not given), the TGI was > 100 µM.
[N-]=[N+]=Nc1cc(=O)oc2ccccc12 was tested, and the TGI was > 100 µM.
For CC(=O)NC1=C(NCCC(C)C)C(=O)c2ccccc2C1=O, the TGI was > 50 µM.
With Nc1cccc2cc(Cl)cnc12 the TGI was > 100 µM.
For CC1=C(C)[C@@]2(C)O[C@@]2(C)O[C@@]2(C)O[C@@]12C, the TGI was > 100 µM.
With O=C([O-])CC(=O)[O-].O=C([O-])CC(=O)[O-].[K+].[Pd+2] the GI50 was > 100 µM and the TGI was > 100 µM.

Each compound was assayed on MOLT-4 leukemia (assay: DTP human tumour cell line panel, 48 h).
For O=c1[nH][nH]c(=O)n1Cc1ccccc1Cn1c(=O)[nH][nH]c1=O, the TGI was > 100 µM.
With CC1C=C(CCCCCCCCCCCC[C@@H](O)[C@@H]2CC[C@@H]([C@@H]3CC[C@@H](C(O)CCCCCCCCCCCCC4=C[C@H](C)OC4=O)O3)O2)C(=O)O1 (stereo not given in full) the TGI was > 100 µM.
For COc1cc([C@@H]2OCC3C(c4ccc5c(c4)OCO5)OCC32)cc(OC)c1OC (stereo not given in full), the TGI was > 100 µM.
For CCOC(=O)c1c2ccccc2n2c(N)c(C(N)=O)nnc12, the TGI was > 100 µM.
For CC[C@@]1(O)C(=O)OCc2c1cc1n(c2=O)Cc2c-1nc1ccccc1c2/C=N\NC(=O)CN, the TGI was 0.368 µM.
With N#CN=C(N(Cc1ccccc1)Cc1ccccc1)N(Cc1ccccc1)Cc1ccccc1 the TGI was > 100 µM.
In the case of CNC(=O)C(C)C1CCC2(C)C=CC(=O)C(C)=C2C1O (stereo not given), the TGI is reported as > 100 µM.
With CCOC(=O)C(NC(C)=O)(Nc1ccc(F)cc1)C(F)(F)F (stereo not given) the TGI was > 100 µM.
Compound CCOc1cc2c(cc1O)/C(=N\OC)C[C@@H]1[C@@H]2CC[C@]2(C)[C@@H](O)CC[C@@H]12 has a TGI of 26.5 µM.
With COC(=O)[C@H](Cc1c[nH]c2ccccc12)NP(=O)(O)OCC1C=CC(n2cc(C)c(=O)[nH]c2=O)O1 (stereo not given in full) the TGI was > 100 µM.
C[n+]1c2ccccc2c(/C=N\NS(=O)(=O)c2ccc(O)c(C(=O)O)c2)c2ccccc21 gave a TGI of 62 µM.
With O=C(Nc1ccc(C2=NCCN2)cc1)c1cncc(C(=O)Nc2ccc(C3=NCCN3)cc2)c1 the TGI was > 100 µM.
In the case of Clc1ccc(/C=C/c2nc3ccccc3s2)cc1Cl, the TGI is reported as > 100 µM.
In the case of Cc1ccc(SCC(CSCCO)OCn2cnc3c2NC(N)=NC32OCCO2)cc1 (stereo not given), the TGI is reported as > 100 µM.
CC(=O)Nc1ccc(-c2nnc(SCC(=O)Nc3ccc([N+](=O)[O-])cc3)o2)cc1 was tested, and the TGI was > 100 µM.
For N.N.N.N.O=[N+]([O-])[O-].[Co+3].[N-]=[N+]=[N-].[N-]=[N+]=[N-], the TGI was > 100 µM.
NC(=O)C(c1ccccc1)N1OC2C(=O)N(c3ccccc3)C(=O)C2C1c1c2ccccc2c(Cl)c2ccccc12 (stereo not given) was tested, and the TGI was > 100 µM.
In the case of CC[C@@]1(C[C@H]2C[C@@]3(C(=O)OC)c4[nH]c5ccccc5c4CCN3C2=O)COC2(CCCCC2)O1, the TGI is reported as > 100 µM.
In the case of COc1ccc2c(=O)c(O)c(-c3ccc(OC)c(OC)c3)oc2c1, the TGI is reported as > 100 µM.
CC(C)CCCCCCCCCCCCC(=O)NCC(=O)NC1C(C)OC(Nc2ncnc3c2ncn3C)C(O)C1O (stereo not given) was tested, and the TGI was > 100 µM.
For COc1ccc(C2c3cc4c(cc3OC(NNS(=O)(=O)c3ccc(C)cc3)C2C)OCO4)cc1 (stereo not given), the TGI was > 100 µM.
With c1ccc(N=C2SC3=Nc4cccc5cccc(c45)N3C2=Nc2ccccc2)cc1 the TGI was > 100 µM.
CCC12C=CCN3CCC4(C(=C(C(=O)OC)[C@@H]1O)Nc1ccccc14)C32 (stereo not given in full) showed a TGI of 11.7 µM.
With O=C(O)CN(CC(=O)O)C1CCCCC1N(CC(=O)O)CC(=O)NCCN=C=S (stereo not given) the TGI was > 100 µM.
Cc1cn(C2CC(N(O)C(N)=O)C(CO)O2)c(=O)[nH]c1=O (stereo not given) was tested, and the TGI was > 100 µM.
In the case of COc1nc(N)c(C(=O)CCl)c(=O)n1C, the TGI is reported as 44.7 µM.
O=C1CCC23CC(C=CC=C12)n1c(=O)n(-c2ccccc2)c(=O)n13 (stereo not given) was tested, and the TGI was > 100 µM.
[N-]=[N+]=Nc1cc(=O)oc2ccccc12 was tested, and the TGI was > 100 µM.
With CC(=O)NC1=C(NCCC(C)C)C(=O)c2ccccc2C1=O the TGI was > 50 µM.
In the case of Nc1cccc2cc(Cl)cnc12, the TGI is reported as > 100 µM.

What follows are compounds tested on NCI-H226 lung (assay: DTP human tumour cell line panel, 48 h).
For O=c1[nH][nH]c(=O)n1Cc1ccccc1Cn1c(=O)[nH][nH]c1=O, the TGI was > 100 µM.
With CC1C=C(CCCCCCCCCCCC[C@@H](O)[C@@H]2CC[C@@H]([C@@H]3CC[C@@H](C(O)CCCCCCCCCCCCC4=C[C@H](C)OC4=O)O3)O2)C(=O)O1 (stereo not given in full) the TGI was > 100 µM.
For COc1cc([C@@H]2OCC3C(c4ccc5c(c4)OCO5)OCC32)cc(OC)c1OC (stereo not given in full), the TGI was > 100 µM.
CC[C@@]1(O)C(=O)OCc2c1cc1n(c2=O)Cc2c-1nc1ccccc1c2/C=N\NC(=O)CN gave a TGI of 3.54 µM.
For N#CN=C(N(Cc1ccccc1)Cc1ccccc1)N(Cc1ccccc1)Cc1ccccc1, the TGI was > 100 µM.
CNC(=O)C(C)C1CCC2(C)C=CC(=O)C(C)=C2C1O (stereo not given) was tested, and the TGI was > 100 µM.
For CCOc1cc2c(cc1O)/C(=N\OC)C[C@@H]1[C@@H]2CC[C@]2(C)[C@@H](O)CC[C@@H]12, the TGI was 0.654 µM.
CC1(C)N=C(/C(Cl)=[N+](/[O-])C(=O)c2ccc(F)cc2)C(C)(C)N1O gave a TGI of 42.2 µM.
With COC(=O)[C@H](Cc1c[nH]c2ccccc12)NP(=O)(O)OCC1C=CC(n2cc(C)c(=O)[nH]c2=O)O1 (stereo not given in full) the TGI was > 100 µM.
With COC(=O)[C@H]1CO[C@@H](C(C)(C)C)N1C(=O)N1C=CC(=O)C[C@@H]1C the TGI was > 100 µM.
C[n+]1c2ccccc2c(/C=N\NS(=O)(=O)c2ccc(O)c(C(=O)O)c2)c2ccccc21 was tested, and the TGI was > 100 µM.
O=C(Nc1ccc(C2=NCCN2)cc1)c1cncc(C(=O)Nc2ccc(C3=NCCN3)cc2)c1 was tested, and the TGI was > 100 µM.
Compound CC(=O)Nc1ccc(-c2nnc(SCC(=O)Nc3ccc([N+](=O)[O-])cc3)o2)cc1 has a TGI of 29.5 µM.
In the case of COC(=O)C1CCC(=O)N1C(c1ccccc1)c1ccc(OC)c(OC)c1 (stereo not given), the TGI is reported as > 100 µM.
For NC(=O)C(c1ccccc1)N1OC2C(=O)N(c3ccccc3)C(=O)C2C1c1c2ccccc2c(Cl)c2ccccc12 (stereo not given), the TGI was > 100 µM.
Work on CC(C)CCCCCCCCCCCCC(=O)NCC(=O)NC1C(C)OC(Nc2ncnc3c2ncn3C)C(O)C1O (stereo not given) yielded a TGI of 15.2 µM.
